Read-outs that look alike come from different tables or passages of the source. Values belong to the molecule of their own block, whether it stands above or below them.
Columns and labels:
Type in all cases: cell-based
[1] = target: N-type calcium channel subunits (α1B, α2δ, and β3a) (Homo sapiens, UniProt Q00975); assay: Block of Cav2.2 channel, whole cell voltage clamp, manual and PatchXpress; conditions: Table 5; table follows Assay Example 3 (whole cell voltage clamp / PatchXpress); assay not given
Method: Cells are grown either on poly-D-lysine coated coverglass (manual EP) or in TIS culture plates (PatchXpress). For the PatchExpress, cells are released from the flask using trypsin. In both cases, the […] solution is (in mM): 130 […], 10 EGTA, 10 HEPES, 2 MgCl2, 3 MgATP, pH 7.3 with CsOH.
Microelectrodes are fabricated from borosilicate glass and fire-polished. […] The reference electrode is a silver-silver chloride pellet. Voltages are not corrected for the liquid junction potential between the internal and external solutions and leak is subtracted using the P/n procedure. Solutions are applied to cells by bath perfusion via gravity. The experimental chamber volume is—0.2 mL. and the perfusion rate is 0.5-2 mL/min. Flow of suction through the chamber is maintained at all times. Measurement of current amplitudes is performed with […] software (HEKA Elektronik).
PatchXpress (Molecular Devices) is a 16-well whole-cell automated patch clamp device that operates asynchronously with fully integrated fluidics. […] Capacitance and series resistance compensation is automated. No correction for liquid junction potentials is employed. Leak is subtracted using the P/n procedure. Compounds are added to cells with a pipettor from a 96-well compound plate. Voltage protocols and the recording of membrane currents are performed using the PatchXpress software/hardware system. Current amplitudes are calculated with DataXpress software.
In both manual and automated patch clamp, cells are voltage clamped at […] or −90 m V and 50 ms pulses to +20 mV are applied every 15 sec (0.067 Hz). Compounds are added in escalating doses to measure % inhibition. Percent inhibition is calculated from the ratio of the curerent amplitude in the presence and absence of compound. When multiple doses are achieved per cell, IC50 values are calculated.

Human Cav 2.2 channels = Human Cav 2.2 channels (Homo sapiens, UniProt Q00975); assay: Fluorescent assay for CaV2.2 channels using potassium depolarization (VIPR/FLIPR); conditions: FLIPR data; for CAv2.2 IC50 Ratio closed/inact.: ratio closed/inactivated IC50
Source text: Human Cav 2.2 channels were stably expressed in HEK293 cells along with alpha2-delta and beta subunits of voltage-gated calcium channels. An inwardly rectifying potassium channel (Kir2.3) was also expressed in these cells to allow more precise control of the cell membrane potential by extracellular potassium concentration. At low bath potassium concentration, the membrane potential is relatively negative, and is depolarized as the bath potassium concentration is raised. In this way, the bath potassium concentration can be used to regulate the voltage-dependent conformations of the channels. […] After the incubation period, Cav2.2 channel opening is triggered by addition of higher concentration of potassium (70 mM final concentration) to further depolarize the cell. The degree of state-dependent block can be estimated from the inhibitory potency of compounds after incubation in different potassium concentrations.
Calcium influx through Cav 2.2 channels is determined using a calcium sensitive fluorescent dye in combination with a fluorescent plate reader. Fluorescent changes were measured with either a VIPR (Aurora Instruments) or FLIPR (Molecular Devices) plate reader.
1. Seed cells in Poly-D-Lysine Coated 96 or 384-well plate and keep in a 3rC-IO % C02 incubator overnight.
2. Remove media, wash cells with 0.2 mL (96-well plate) or 0.05 mL (384-well plate) Dulbecco's Phosphate Buffered Saline (D-PBS) with calcium & magnesium (Invitrogen; 14040).
3. Add 0.1 mL (96-well plate) or 0.05 mL (384-well plate) of 4˜M fluor-4 (Molecular Probes; F-14202) and 0.02% Pluronic acid (Molecular Probes; P-3(00) prepared in D-PBS with calcium & magnesium (Invitrogen; 14040) supplemented with 10 mM Glucose & 10 mM HepeslNaOH; pH 7.4.
4. Incubate in the dark at 25° C. for 60-70 min.
5. Remove dye, wash cells with 0.1 mL (96-well plate) or 0.06 mL (384-well plate) of 4, 12, 25, or 30 mM Potassium Pre-polarization Buffer (PPB).
6. Add 0.1 mL (96-well plate) or 0.03 mL (384-well plate) of 4, 12, 25, 30 mM PPB with or without test compound.
7. Incubate in the dark at 25° C. for 30 min
8. Read cell plate on VIPR instrument, Excitation=480 nm, Emission=535 nm.
9. With VIPR continuously reading, add 0.1 mL (96-well plate) or 0.03 mL (384-well plate) of Depolarization Buffer (DB), which is 2× the final assay concentration, to the cell plate.

T-type calcium channel = T-type calcium channel (Homo sapiens, UniProt O95180); assay: T-type channel blocking, FLIPR data (Table 6); conditions: for CAv3.2 IC50 Ratio closed/inact.: CAv3.2, ratio closed/inactivated IC50
Source text: Another method, high-throughput spectrophotometric assay, utilizes loading of the cell lines with a fluorescent dye sensitive to intracellular calcium concentration and subsequent examination of the effects of compounds on the ability of depolarization by potassium chloride or other means to alter intracellular calcium levels.

CAv1.2 = CAv1.2 (Homo sapiens, UniProt Q13936); assay: FLIPR data, CAv1.2 channel blocking (Table 6)
[2] = closed state, read-out: CAv2.2 IC50 Closed
[3] = inactivated state, read-out: CAv2.2 IC50 Inact.
[4] = CAv3.2, closed state, read-out: CAv3.2 IC50 Closed
[5] = CAv3.2, inactivated state, read-out: CAv3.2 IC50 Inact.
[6] = closed state, read-out: CAv1.2 IC50 Closed
[7] = inactivated state, read-out: CAv1.2 IC50 Inact.

Sequence of T-type calcium channel (O95180 whole entry): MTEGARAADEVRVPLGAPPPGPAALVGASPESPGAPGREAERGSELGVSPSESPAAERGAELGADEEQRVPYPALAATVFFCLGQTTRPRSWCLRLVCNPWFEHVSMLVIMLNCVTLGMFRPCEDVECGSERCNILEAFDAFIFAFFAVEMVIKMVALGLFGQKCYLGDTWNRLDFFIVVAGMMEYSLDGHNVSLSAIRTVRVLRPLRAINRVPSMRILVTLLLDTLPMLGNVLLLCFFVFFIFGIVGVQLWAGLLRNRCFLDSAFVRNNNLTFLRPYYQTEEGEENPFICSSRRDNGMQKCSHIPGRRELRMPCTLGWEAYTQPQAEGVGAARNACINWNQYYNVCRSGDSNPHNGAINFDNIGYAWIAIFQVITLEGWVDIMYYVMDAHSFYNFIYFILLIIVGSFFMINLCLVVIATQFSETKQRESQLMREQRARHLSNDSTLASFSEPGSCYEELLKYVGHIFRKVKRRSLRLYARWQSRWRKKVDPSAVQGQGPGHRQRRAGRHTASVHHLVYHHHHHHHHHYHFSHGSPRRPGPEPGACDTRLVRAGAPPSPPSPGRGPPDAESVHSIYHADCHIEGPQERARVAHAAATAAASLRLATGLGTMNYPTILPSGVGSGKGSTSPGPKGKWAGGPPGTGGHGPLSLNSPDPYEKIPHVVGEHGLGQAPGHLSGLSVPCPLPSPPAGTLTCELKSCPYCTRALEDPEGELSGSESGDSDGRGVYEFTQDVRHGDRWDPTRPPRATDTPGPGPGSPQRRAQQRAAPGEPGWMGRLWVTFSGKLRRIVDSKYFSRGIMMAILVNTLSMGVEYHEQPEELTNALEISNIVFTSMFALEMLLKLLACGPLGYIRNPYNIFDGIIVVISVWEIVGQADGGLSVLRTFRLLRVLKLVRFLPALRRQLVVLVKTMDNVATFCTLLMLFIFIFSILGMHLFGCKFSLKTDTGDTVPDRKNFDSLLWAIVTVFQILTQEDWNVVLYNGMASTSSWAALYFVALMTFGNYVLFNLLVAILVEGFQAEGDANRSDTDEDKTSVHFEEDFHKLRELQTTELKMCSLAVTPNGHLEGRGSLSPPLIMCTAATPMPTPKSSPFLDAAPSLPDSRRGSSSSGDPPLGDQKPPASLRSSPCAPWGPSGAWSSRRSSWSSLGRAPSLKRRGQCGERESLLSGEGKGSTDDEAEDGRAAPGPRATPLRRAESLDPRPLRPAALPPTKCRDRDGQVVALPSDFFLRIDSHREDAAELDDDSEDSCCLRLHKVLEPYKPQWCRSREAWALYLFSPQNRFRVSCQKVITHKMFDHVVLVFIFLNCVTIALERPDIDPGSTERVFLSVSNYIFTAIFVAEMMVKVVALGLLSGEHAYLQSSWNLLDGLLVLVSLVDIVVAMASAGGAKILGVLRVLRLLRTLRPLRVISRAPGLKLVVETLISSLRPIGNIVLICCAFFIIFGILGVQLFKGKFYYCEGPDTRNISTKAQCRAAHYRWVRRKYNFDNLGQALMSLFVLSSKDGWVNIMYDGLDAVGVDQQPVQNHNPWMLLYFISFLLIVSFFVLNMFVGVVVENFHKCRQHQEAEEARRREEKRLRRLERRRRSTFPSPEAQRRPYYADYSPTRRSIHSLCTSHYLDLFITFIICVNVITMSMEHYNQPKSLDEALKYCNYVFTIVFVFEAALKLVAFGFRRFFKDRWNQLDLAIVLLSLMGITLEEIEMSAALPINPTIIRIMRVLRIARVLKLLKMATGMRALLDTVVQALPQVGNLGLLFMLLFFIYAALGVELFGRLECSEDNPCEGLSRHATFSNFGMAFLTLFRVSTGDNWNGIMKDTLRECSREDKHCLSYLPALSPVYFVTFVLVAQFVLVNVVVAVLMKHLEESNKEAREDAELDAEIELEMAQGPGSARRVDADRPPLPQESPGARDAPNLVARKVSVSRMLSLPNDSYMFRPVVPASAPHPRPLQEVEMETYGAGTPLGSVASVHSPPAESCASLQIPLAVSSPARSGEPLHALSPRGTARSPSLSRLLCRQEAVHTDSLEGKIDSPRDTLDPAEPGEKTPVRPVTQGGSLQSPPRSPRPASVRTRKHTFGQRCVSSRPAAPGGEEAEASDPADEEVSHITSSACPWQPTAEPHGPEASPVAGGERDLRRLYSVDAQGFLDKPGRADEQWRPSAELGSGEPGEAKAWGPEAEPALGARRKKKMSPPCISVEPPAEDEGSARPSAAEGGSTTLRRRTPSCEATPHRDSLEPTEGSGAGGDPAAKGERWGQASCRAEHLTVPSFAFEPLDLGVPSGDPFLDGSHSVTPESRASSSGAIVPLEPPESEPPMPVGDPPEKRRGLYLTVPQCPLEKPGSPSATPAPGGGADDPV

IC50 [1]: 260 nM
SMILES: COc1cc(F)cc(C(=O)NC[C@H]2C[C@H](S(=O)(=O)c3cccc(C(F)(F)F)c3)C2)c1 [Compound 375, 3-fluoro-5-methoxy-N-(((1R,3R)-3-(3-(trifluoromethyl)phenylsulfonyl)cyclobutyl)methyl)benzamide]

IC50 [1]: 5940 nM
SMILES: O=C(NC[C@]1(O)CC[C@@H](S(=O)(=O)c2cccc(C(F)(F)F)c2)CC1)c1ccc(C(F)(F)F)nc1 [Compound 235, N-(((1S,4S)-1-hydroxy-4-(3-(trifluoromethyl)phenylsulfonyl)cyclohexyl)methyl)-6-(trifluoromethyl)nicotinamide]

IC50 [1]: 1810 nM
SMILES: O=C(CN1CCCCC1)N[C@H]1CC[C@H](CS(=O)(=O)c2cccc(C(F)(F)F)c2)CC1 [Compound 164, 2-(piperidin-1-yl)-N-((1R,4R)-4-((3-(trifluoromethyl)phenylsulfonyl)methyl)cyclohexyl)acetamide]

IC50 [1]: > 10000 nM
SMILES: O=C(N[C@H]1C[C@@H](S(=O)(=O)c2cccc(C(F)(F)F)c2)C1)c1ccc(C(F)(F)F)nc1 [Compound 430, 6-(trifluoromethyl)-N-((1S,3S)-3-(3-(triffuoromethyl)phenylsulfonyl)cyclobutyl) nicotinamide]

IC50 [1]: 290 nM
SMILES: O=S(=O)(c1cccc(C(F)(F)F)c1)[C@H]1C[C@H](c2c[nH]c(-c3ccc(OC(F)(F)F)cc3)n2)C1 [Compound 444, 2-(4-(trifluoromethoxy)phenyl)-4-((1R,3R)-3-(3-(trifluoromethyl)phenylsulfonyl)cyclobutyl)-1H-imidazole]

IC50 [1]: 80 nM
SMILES: CC(C)([C@H]1C[C@H](NC(=O)c2ccc(F)c(C(F)(F)F)c2)C1)S(=O)(=O)c1cccc(C(F)(F)F)c1 [Compound 440, 4-fluoro-3-(trifluoromethyl)-N-((1R,3R)-3-(2-(3-(trifluoromethyl)phenylsulfonyl)propan-2-yl)cyclobutyl)benzamide]

IC50 [1]: 1630 nM
SMILES: O=C(NC[C@H]1C[C@H](S(=O)(=O)c2cc(F)cc(C(F)(F)F)c2)C1)c1ccc(C(F)(F)F)cn1 [Compound 390, N-(((1R,3R)-3-(3-fluoro-5-(trifluoromethyl)phenylsulfonyl)cyclobutyl)methyl)-5-(trifluoromethyl) picolinamide]

IC50 [1]: 5580 nM
SMILES: Cc1nn(C)c(C)c1S(=O)(=O)NC[C@H]1C[C@H](S(=O)(=O)c2cccc(C(F)(F)F)c2)C1 [Compound 421, 1,3,5-trimethyl-N-(((1R,3R)-3-(3-(trifluoromethyl)phenylsulfonyl)cyclobutyl)methyl)-1H-pyrazole-4-sulfonamide]

IC50 [1]: 3150 nM
SMILES: O=C(N[C@H]1CC[C@@H](S(=O)(=O)c2cccc(C(F)(F)F)c2)CC1)c1cnccc1C(F)(F)F [Compound 195, 4-(trifluoromethyl)-N-((1S,4S)-4-(3-(trifluoromethyl)phenylsulfonyl)cyclohexyl)nicotinamide]

IC50 [1]: 1990 nM
SMILES: CC(C)(C)NCC(=O)N[C@H]1CC[C@H](CS(=O)(=O)c2cccc(C(F)(F)F)c2)CC1 [Compound 160, 2-(tert-butylamino)-N-((1R,4R)-4-((3-(trifluoromethyl)phenylsulfonyl)methyl)cyclohexyl)acetamide]

IC50 [1]: 1860 nM
SMILES: O=C(N[C@H]1CC[C@@H](S(=O)(=O)c2cccc(C(F)(F)F)c2)CC1)c1ccnc(F)c1 [Compound 201, 2-fluoro-N-((1S,4S)-4-(3-(trifluoromethyl)phenylsulfonyl)cyclohexyl)isonicotinamide]

IC50 [1]: 2450 nM
SMILES: CN(CC(=O)N[C@H]1CC[C@H](CS(=O)(=O)c2cccc(C(F)(F)F)c2)CC1)C(C)(C)C [Compound 161, 2-(tert-butyl(methyl)amino)-N-((1R,4R)-4-((3-(trifluoromethyl)phenylsulfonyl)methyl)cyclohexyl)acetamide]

IC50 [1]: 2060 nM
SMILES: O=C(N[C@H]1CC[C@H](CS(=O)(=O)c2cccc(C(F)(F)F)c2)CC1)c1cncc(C(F)(F)F)c1 [Compound 177, 5-(trifluoromethyl)-N-((1R,4R)-4-((3-(trifluoromethyl)phenylsulfonyl)tmehyl)cyclohexyl)nicotinamide]

IC50 [1]: 8580 nM
SMILES: CC(C)NC(=O)CN[C@H]1CC[C@H](S(=O)(=O)c2cccc(C(F)(F)F)c2)CC1 [Compound 72, N-isopropyl-2-((1R,4R)-4-(3-(trifluoromethyl)phenylsulfonyl)cyclohexylamino)acetamide]

IC50 [1]: 1010 nM
SMILES: O=C(N[C@H]1CC[C@@](F)(S(=O)(=O)c2cccc(C(F)(F)F)c2)CC1)c1ccc(O)c(C(F)(F)F)c1 [Compound 247, N-((1S,4S)-4-fluoro-4-(3-(trifluoromethyl)phenylsulfonyl)cyclohexyl)-4-hydroxy-3-(trifluoromethyl)benzamide]

IC50 [1]: 1630 nM
SMILES: Cc1cc(C(=O)N[C@H]2CC[C@H](S(=O)(=O)c3cccc(C(F)(F)F)c3)CC2)c(C(F)(F)F)o1 [Compound 185, 5-methyl-2-(trifluoromethyl)-N-((1R,4R)-4-(3-(trifluoromethyl)phenylsulfonyl)cyclohexyl)furan-3-carboxamide]

IC50 (Human Cav 2.2 channels; [2]): 9.1 µM
IC50 (Human Cav 2.2 channels; [3]): 0.46 µM
CAv2.2 IC50 Ratio closed/inact. (Human Cav 2.2 channels): 19.8
IC50 (T-type calcium channel; [4]): ≥ 10 µM
IC50 (T-type calcium channel; [5]): 10 µM
CAv3.2 IC50 Ratio closed/inact. (T-type calcium channel): 1
SMILES: CC(C)(C[C@H]1C[C@@H](NC(=O)c2ncc(C(F)(F)F)cc2S(C)(=O)=O)C1)S(=O)(=O)c1cccc(C(F)(F)F)c1 [Compound 730]
IC50 (CAv1.2; [6]): ≥ 10 µM
IC50 (CAv1.2; [7]): ≥ 10 µM

IC50 (Human Cav 2.2 channels; [2]): 8.63 µM
IC50 (Human Cav 2.2 channels; [3]): 0.49 µM
CAv2.2 IC50 Ratio closed/inact. (Human Cav 2.2 channels): 17.6
IC50 (T-type calcium channel; [4]): ≥ 10 µM
IC50 (T-type calcium channel; [5]): 9.98 µM
CAv3.2 IC50 Ratio closed/inact. (T-type calcium channel): 1
SMILES: CC(C)(C[C@H]1C[C@H](NC(=O)c2ncc(C(F)(F)F)cc2S(C)(=O)=O)C1)S(=O)(=O)c1cccc(C(F)(F)F)c1 [Compound 717]
IC50 (CAv1.2; [6]): ≥ 10 µM
IC50 (CAv1.2; [7]): ≥ 10 µM

IC50 (Human Cav 2.2 channels; [2]): 5.77 µM
IC50 (Human Cav 2.2 channels; [3]): 2.29 µM
CAv2.2 IC50 Ratio closed/inact. (Human Cav 2.2 channels): 2.5
IC50 (T-type calcium channel; [4]): ≥ 10 µM
IC50 (T-type calcium channel; [5]): 10 µM
CAv3.2 IC50 Ratio closed/inact. (T-type calcium channel): 1
SMILES: N[C@@H]1CCCC[C@H]1C(=O)NC[C@H]1C[C@H](S(=O)(=O)c2cccc(OC(F)(F)F)c2)C1 [Compound 714]
IC50 (CAv1.2; [6]): ≥ 10 µM

IC50 (Human Cav 2.2 channels; [2]): 4.1 µM
IC50 (Human Cav 2.2 channels; [3]): 0.95 µM
CAv2.2 IC50 Ratio closed/inact. (Human Cav 2.2 channels): 4.3
IC50 (T-type calcium channel; [5]): 10 µM
SMILES: CC(C)(C[C@H]1C[C@H](NC(=O)[C@@H]2CCCC[C@@H]2N)C1)S(=O)(=O)c1cccc(C(F)(F)F)c1 [Compound 727]
IC50 (CAv1.2; [7]): ≥ 10 µM

IC50 (Human Cav 2.2 channels; [2]): 3.24 µM
IC50 (Human Cav 2.2 channels; [3]): 0.43 µM
CAv2.2 IC50 Ratio closed/inact. (Human Cav 2.2 channels): 7.5
IC50 (T-type calcium channel; [4]): 8.12 µM
IC50 (T-type calcium channel; [5]): 5.83 µM
CAv3.2 IC50 Ratio closed/inact. (T-type calcium channel): 1.4
SMILES: O=C(NC[C@H]1C[C@H](S(=O)(=O)c2cccc(C(F)(F)F)c2)C1)c1ccc(Cl)cn1 [Compound 573]
IC50 (CAv1.2; [6]): ≥ 10 µM
IC50 (CAv1.2; [7]): ≥ 10 µM

Source: patent publication US20120245137A1 (Zalicus Pharmaceuticals Ltd., priority 2009, published 2012)
